Measurements reported in US10858360B2, “Tricyclic gyrase inhibitors” (priority 2011, dated 2020).
Converted amounts (≈) assume the structure as drawn.

How the values were obtained:
[1] = tested on: S. aureus ATCC 13709; assay: MIC, S. aureus ATCC 13709 (Alamar Blue broth microdilution); format: cell-based; conditions: Alamar Blue read after overnight incubation at 35° C.; for MIC: Staphylococcus aureus, ATCC13709, S. aureus; for MIC Sa: S. aureus
[2] = tested on: E. coli ATCC 25922; assay: MIC, E. coli ATCC 25922; format: cell-based; conditions: Alamar Blue read after overnight incubation at 35° C.; for MIC: Escherichia coli, ATCC25922, E. coli; for MIC Ec: E. coli

| Structure (SMILES) | MIC [1] [µg/mL] | MIC [2] [µg/mL] | MIC Sa [1] [µg/mL] | MIC Ec [2] [µg/mL] |
| --- | --- | --- | --- | --- |
| CNc1cc(F)cc2c1[nH]c1nc(Oc3cncnc3)nc(N3CC4CCC(N)C3C4)c12 (stereo not shown) [4.032] | ≤ 0.5 | 2 (≈ 4.6 µM) |  |  |
| CNc1cc(F)cc2c1[nH]c1nc(Oc3cncnc3)nc(N3CCC4(CCNC4)C3)c12 (stereo not shown) [4.033] | ≤ 0.5 | 4 (≈ 9.21 µM) |  |  |
| CNc1cc(F)cc2c1[nH]c1nc(Oc3cncnc3)nc(N3C[C@H]4C[C@@H]3C[C@H]4N)c12 [4.034] | ≤ 0.5 | ≤ 0.5 |  |  |
| CNc1cc(F)cc2c1[nH]c1nc(Oc3cnc4cccnc4c3)nc(N3CC4CC4(N)C3)c12 (stereo not shown) [4.036] | ≤ 0.5 | ≤ 0.5 |  |  |
| CNc1cc(F)cc2c1[nH]c1nc(Oc3cnc4cccnc4c3)nc(N3C[C@H](N)C4(CC4)C3)c12 [4.038] | ≤ 0.5 | ≤ 0.5 |  |  |
| CNc1cc(F)cc2c1[nH]c1nc(Oc3cnc4cccnc4c3)nc(N3C[C@@H]4[C@H](C3)[C@@]4(N)C(N)=O)c12 [4.039] | ≤ 0.5 | 2 (≈ 4 µM) |  |  |
| CNc1cc(F)cc2c1[nH]c1nc(Oc3cnc4cccnc4c3)nc(N3CC[C@]4(C[C@@H]4N)C3)c12 [4.040] | ≤ 0.5 | ≤ 0.5 |  |  |
| CNc1cc(F)cc2c1[nH]c1nc(Oc3cnc4cccnc4c3)nc(N3CC[C@@]4(C[C@H]4N)C3)c12 [4.041] | ≤ 0.5 | 1 (≈ 2.13 µM) |  |  |
| CNc1cc(F)cc2c1[nH]c1nc(Oc3cnc4cccnc4c3)nc(N3CC4(CC4N)C3)c12 (stereo not shown) [4.042] |  |  | ≤0.5 | ≤0.5 |
| CNc1cc(F)cc2c1[nH]c1nc(Oc3cnc4cccnc4c3)nc(N3CC4[C@H](C[C@H]4N)C3)c12 (stereo partly shown) [4.043] | ≤ 0.5 | ≤ 0.5 |  |  |
| CNc1cc(F)cc2c1[nH]c1nc(Oc3cnc4cccnc4c3)nc(N3CC4CCN[C@H]4C3)c12 (stereo partly shown) [4.044] | ≤ 0.5 | ≤ 0.5 |  |  |
| CNc1cc(F)cc2c1[nH]c1nc(Oc3cnc4cccnc4c3)nc(N3CC4C[C@@H](N)C[C@H]4C3)c12 (stereo partly shown) [4.046] | ≤ 0.5 | 1 (≈ 2.06 µM) |  |  |
| CNc1cc(F)cc2c1[nH]c1nc(Oc3cnc4cccnc4c3)nc(N3CC4CC[C@@H](N)[C@H]4C3)c12 (stereo partly shown) [4.047] | ≤ 0.5 | ≤ 0.5 |  |  |
| CNc1cc(F)cc2c1[nH]c1nc(Oc3cnc4cccnc4c3)nc(N3CC4NCCOC4C3)c12 (stereo not shown) [4.048] |  |  | ≤0.5 | 1 (≈ 2.06 µM) |
| CNc1cc(F)cc2c1[nH]c1nc(Oc3cncc(C#N)c3)nc(N3CC4C(N)C4C3)c12 (stereo not shown) [4.050] | ≤ 0.5 | ≤ 0.5 |  |  |
| CNc1cc(F)cc2c1[nH]c1nc(Oc3cncc(C#N)c3)nc(N3CC(N)C4(CC4)C3)c12 (stereo not shown) [4.051] | ≤ 0.5 | 2 (≈ 4.5 µM) |  |  |
| CNc1cc(F)cc2c1[nH]c1nc(Oc3cncc(C#N)c3)nc(N3CCC4(CC4N)C3)c12 (stereo not shown) [4.052] | ≤ 0.5 | ≤ 0.5 |  |  |
| CNc1cc(F)cc2c1[nH]c1nc(Oc3cncc(C#N)c3)nc(N3CC4CC(N)C4C3)c12 (stereo not shown) [4.053] |  |  | ≤0.5 | ≤0.5 |
| CNc1cc(F)cc2c1[nH]c1nc(Oc3cncc(C#N)c3)nc(N3CC4(CCC4N)C3)c12 (stereo not shown) [4.054] |  |  | ≤0.5 | ≤0.5 |
| CNc1cc(F)cc2c1[nH]c1nc(Oc3cncc(F)c3)nc(N3CC4C(N)C4C3)c12 (stereo not shown) [4.055] | ≤ 0.5 | ≤ 0.5 |  |  |
| CNc1cc(F)cc2c1[nH]c1nc(Oc3cncc(F)c3)nc(N3CC(N)C4(CC4)C3)c12 (stereo not shown) [4.056] | ≤ 0.5 | ≤ 0.5 |  |  |
| CNc1cc(F)cc2c1[nH]c1nc(Oc3cncc(F)c3)nc(N3CC4CNC(C4)C3)c12 (stereo not shown) [4.058] | ≤ 0.5 | ≤ 0.5 |  |  |
| CNc1cc(F)cc2c1[nH]c1nc(Oc3cncc(F)c3)nc(N3CC4CC(N)C4C3)c12 (stereo not shown) [4.060] |  |  | ≤0.5 | ≤0.5 |
| CNc1cc(F)cc2c1[nH]c1nc(Oc3cncc(F)c3)nc(N3CC4(CCC4N)C3)c12 (stereo not shown) [4.061] |  |  | ≤0.5 | ≤0.5 |
| CNc1cc(F)cc2c1[nH]c1nc(Oc3cncc(F)c3)nc(N3CCC4(C[C@H]4N)C3)c12 (stereo partly shown) [4.062] | ≤ 0.5 | ≤ 0.5 |  |  |
| CNc1cc(F)cc2c1[nH]c1nc(Oc3cncc(F)c3)nc(N3CC4CC(N)C3C4)c12 (stereo not shown) [4.063] |  |  | 1 (≈ 2.29 µM) | 8 (≈ 18.3 µM) |
| CNc1cc(F)cc2c1[nH]c1nc(Oc3cnc(C)nc3)nc(N3CC(N)C4(CC4)C3)c12 (stereo not shown) [4.065] |  |  | ≤0.5 | ≤0.5 |

| Structure (SMILES) | MIC [1] [µg/mL] | MIC [2] [µg/mL] | MIC Sa [1] [µg/mL] | MIC Ec [2] [µg/mL] |
| --- | --- | --- | --- | --- |
| CNc1cc(F)cc2c1[nH]c1nc(Oc3cnc(C)nc3)nc(N3CC4CNC4C3)c12 (stereo not shown) [4.067] | ≤ 0.5 | ≤ 0.5 |  |  |
| CNc1cc(F)cc2c1[nH]c1nc(Oc3cnc(C)nc3)nc(N3CC(N)C4(CC4)C3)c12 (stereo not shown) [4.068] |  |  | ≤0.5 | ≤0.5 |
| CNc1cc(F)cc2c1[nH]c1nc(Oc3cnc(C)nc3)nc(N3CC[C@@H](N)C3)c12 [4.070] | ≤ 0.5 | 1 (≈ 2.45 µM) |  |  |
| CNc1cc(F)cc2c1[nH]c1nc(Oc3cnc(C)nc3)nc(N3CCCC(N)CC3)c12 (stereo not shown) [4.071] | ≤ 0.5 | 2 (≈ 4.58 µM) |  |  |
| CNc1cc(F)cc2c1[nH]c1nc(Oc3cnc(C)nc3)nc(N3CC4CNC(C4)C3)c12 (stereo not shown) [4.072] | ≤ 0.5 | 1 (≈ 2.3 µM) |  |  |
| CNc1cc(F)cc2c1[nH]c1nc(Oc3cnc(C)nc3)nc(N3CC4CCC(N)C4C3)c12 (stereo not shown) [4.075] |  |  | ≤0.5 | ≤0.5 |
| CNc1cc(F)cc2c1[nH]c1nc(Oc3cnc(C)nc3)nc(N3CCCC(N)C3)c12 (stereo not shown) [4.077] |  |  | ≤0.5 | ≤0.5 |
| CNc1cc(F)cc2c1[nH]c1nc(Oc3cnc(C)nc3)nc(N3CC4C(C3)C4NC(=O)CN)c12 (stereo not shown) [4.078] |  |  | ≤0.5 | 8 (≈ 16.8 µM) |
| CNc1cc(F)cc2c1[nH]c1nc(Oc3cnc(C)nc3)nc(N3CC(C4(N)CC4)C3)c12 [4.080] |  |  | ≤0.5 | 1 (≈ 2.3 µM) |
| CNc1cc(F)cc2c1[nH]c1nc(Oc3cnc(C)nc3)nc(N3CCC4CNC4C3)c12 (stereo not shown) [4.081] |  |  | ≤0.5 | 1 (≈ 2.3 µM) |
| CNc1cc(F)cc2c1[nH]c1nc(Oc3cnc(C)nc3)nc(N3CC4CNCCC43)c12 (stereo not shown) [4.082] |  |  | 1 (≈ 2.3 µM) | 8 (≈ 18.4 µM) |
| CNc1cc(F)cc2c1[nH]c1nc(Oc3cnc(C)nc3)nc(N3CCC(C4(N)CC4)C3)c12 (stereo not shown) [4.083] |  |  | ≤0.5 | ≤0.5 |
| CNc1cc(F)cc2c1[nH]c1nc(Oc3cnc(C)nc3)nc(N3CC(NC(=O)CN)C4(CC4)C3)c12 (stereo not shown) [4.085] |  |  | ≤0.5 | 2 (≈ 4.07 µM) |
| CNc1cc(F)cc2c1[nH]c1nc(Oc3cnc(C)nc3)nc(N3CC4CCCC(N)C4C3)c12 (stereo not shown) [4.086] |  |  | ≤0.5 | 2 (≈ 4.32 µM) |
| CNc1cc(F)cc2c1[nH]c1nc(Oc3cnc(C)nc3)nc(N3CC(C)C(CN)C3)c12 (stereo not shown) [4.087] |  |  | ≤0.5 | 1 (≈ 2.29 µM) |
| CNc1cc(F)cc2c1[nH]c1nc(Oc3cnc(C)nc3)nc(N3CCCC(C)(N)C3)c12 (stereo not shown) [4.088] |  |  | ≤0.5 | 1 (≈ 2.29 µM) |
| CNc1cc(F)cc2c1[nH]c1nc(Oc3cnc(C)nc3)nc(N3CC(NCCO)C4(CC4)C3)c12 (stereo not shown) [4.089] |  |  | ≤0.5 | ≤0.5 |
| CNc1cc(F)cc2c1[nH]c1nc(Oc3cnc(C)nc3)nc(N3CC(NCCN)C4(CC4)C3)c12 (stereo not shown) [4.090] |  |  | ≤0.5 | 4 (≈ 8.38 µM) |
| CNc1cc(F)cc2c1[nH]c1nc(Oc3cnc(C)nc3)nc(N3C4CCC3CC(N)C4)c12 (stereo not shown) [4.091] |  |  | ≤0.5 | 1 (≈ 2.23 µM) |
| CNc1cc(F)cc2c1[nH]c1nc(Oc3cnc(C)nc3)nc(N3CC4CCC(N)CC4C3)c12 (stereo not shown) [4.092] |  |  | ≤0.5 | 2 (≈ 4.32 µM) |
| CNc1cc(F)cc2c1[nH]c1nc(Oc3cnc(C)nc3)nc(N3CC4CCC(N)CC4C3)c12 (stereo not shown) [4.093] |  |  | ≤0.5 | 4 (≈ 8.65 µM) |
| CNc1cc(F)cc2c1[nH]c1nc(Oc3cnc(C)nc3)nc(N3CC4CCNC4C3)c12 (stereo not shown) [4.094] |  |  | ≤0.5 | ≤0.5 |
| CNc1cc(F)cc2c1[nH]c1nc(Oc3cnc(C)nc3)nc(N3C4CCC3C(N)C4)c12 (stereo not shown) [4.095] |  |  | 2 (≈ 4.6 µM) | 8 (≈ 18.4 µM) |
| CNc1cc(F)cc2c1[nH]c1nc(Oc3cnc(C)nc3)nc(N3CC4(CC4N)C3)c12 (stereo not shown) [4.096] |  |  | ≤0.5 | ≤0.5 |
| CNc1cc(F)cc2c1[nH]c1nc(Oc3cnc(C)nc3)nc(N3CC4C(N)CC(C)(C)C4C3)c12 (stereo not shown) [4.097] |  |  | ≤0.5 | 2 (≈ 4.2 µM) |
| CNc1cc(F)cc2c1[nH]c1nc(Oc3cnc(C)nc3)nc(N3CC4CC4(CN)C3)c12 (stereo not shown) [4.098] |  |  | ≤0.5 | 1 (≈ 2.3 µM) |
